Experimental data as given in paper PMC10817917, “Alkyl deoxyglycoside-polymyxin combinations against critical priority carbapenem-resistant gram-negative bacteria” (Scientific Reports, 2024).
In brackets after ≈: the same amount, converted by molar mass. Entries after “also recorded” stand apart in the source; their conditions may differ. Where two headings read alike, the source gives them in different places.

Key:
Caco-2 cells = assay: Resazurin cell viability assay (cytotoxicity); assay type: cell-based, human; details: read-out: IC50
Experimental: (§1) Cytotoxicity of each compound alone or in combination with different polymyxin concentrations was evaluated through the resazurin cell viability assay[49] in human embryonic HEK-293T cells, as well as in human colon adenocarcinoma Caco-2 cells, after a 72-h long incubation period.
(§2) HEK-293T and Caco-2 cells were grown in RPMI 1640 medium (VWR) supplemented with 10% FBS (Biowest), 1% PenStrep (Sigma Aldrich), and 1% glutamine (Biowest) in a humidified incubator at 37 °C with a 5% CO2 atmosphere. Twice a week, the medium was aspirated, the cells were washed with DPBS (VWR), trypsinized with trypsin–EDTA solution (Biowest), and resuspended in fresh culture medium. The dose-dependent effects of each glycoside or glycoside-polymyxin combination were evaluated by the resazurin cell viability assay. Polymyxins (colistin sulfate and PMB sulfate for microbiological assays, European Pharmacopoeia Reference Standards, Sigma-Aldrich) were firstly dissolved in sterilized Mili-Q water to a stock concentration of 1 mg/mL, while glycosides were dissolved in DMSO to a stock concentration of 30 mM. 1.5 × 10^4 cells/well in 96.5 µL of medium were seeded onto 96-well plates and incubated at 37 °C for 24 h. For each compound, ten stock dilutions (with concentrations from 750 to 75 µM) were prepared in fresh medium immediately prior to incubation. 16 µL of each dilution were added to each well so that the final glycoside concentrations ranged from 100 to 10 µM in each row in a final assay volume of 120 µL. In addition, the previously prepared polymyxin stock solutions were diluted in fresh medium, affording new stocks of 8, 4, and 2 µg/mL. The same volume (7.5 µL/well) of PMB or colistin was then added to each row to achieve a final polymyxin concentration of 0.5, 0.25, and 0.125 µg/mL, respectively, regardless of the glycoside concentration. In assays without polymyxin, the same volume (7.5 µL/well) of medium was added. In all assays, the maximum DMSO concentration was 0.33%. After a 72-h incubation at 37 °C, 12 µL of a 0.15 mg/mL resazurin (Sigma-Aldrich) in sterilized Mili-Q water were added to each well, and the plates were left incubating for another 4 h at 37 °C. Resorufin was measured at 570/600 nm, and the percentage of resazurin reduction, corresponding to the cell viability percentage, was calculated according to Eq. (1)[60]. IC50 values were obtained by best fitting the dose-dependent inhibition curves using the Prism 9® software. The results were expressed as the mean ± SD of three independent replicates, with only data from analysis with R^2 > 0.90 being considered.1 %Cellviability=Abssample-Absmediumcontrol/Abscellcontrol-Absmediumcontrol×100

HEK-293T cells = assay: Resazurin cell viability assay (cytotoxicity); assay type: cell-based, human; details: 72 h, read-out: IC50
Experimental: as §1, §2

[1] = PE vs phosphatidylcholine (PC); cited from earlier work
E. coli K12 = details: cited from earlier work
B. cereus ATCC 14579 = details: cited from earlier work
E. coli K12 spheroplasts = details: only the IM left intact; cited from earlier work
[2] = Homo sapiens, Caco-2, 72 h, Colistin 0.5 μg/mL
[3] = Homo sapiens, Caco-2, 72 h, No polymyxin
[4] = Homo sapiens, Caco-2, 72 h, tested alone (no polymyxin adjuvant)
[5] = Homo sapiens, HEK-293T, Colistin 0.5 μg/mL
[6] = Homo sapiens, HEK-293T, No polymyxin
[7] = Homo sapiens, HEK-293T, PMB 0.5 μg/mL
[8] = Homo sapiens, HEK-293T, tested alone (no polymyxin adjuvant)
[9] = Homo sapiens, Caco-2, 72 h, Colistin 0.25 μg/mL
[10] = Homo sapiens, Caco-2, 72 h, PMB 0.25 μg/mL
[11] = Homo sapiens, Caco-2, 72 h, PMB 0.5 μg/mL
[12] = Homo sapiens, HEK-293T, Colistin 0.25 μg/mL
[13] = Homo sapiens, HEK-293T, PMB 0.125 μg/mL
[14] = Homo sapiens, HEK-293T, PMB 0.25 μg/mL

Row | SMILES | IC50 (Caco-2 cells; [2]) | IC50 (Caco-2 cells; [3]) | IC50 (Caco-2 cells; [4]) | IC50 (HEK-293T cells; [5]) | IC50 (HEK-293T cells; [6]) | IC50 (HEK-293T cells; [7]) | IC50 (HEK-293T cells; [8]) | interaction with phosphatidylethanolamine (PE) [1] | IC50 (Caco-2 cells; [9]) | IC50 (Caco-2 cells; [10]) | IC50 (Caco-2 cells; [11]) | IC50 (HEK-293T cells; [12]) | IC50 (HEK-293T cells; [13]) | IC50 (HEK-293T cells; [14]) | IC50 (HEK-293T cells; No polymyxin) | other results
1 | CCCCCCCCCCCCO[C@@H]1C[C@@H](O)[C@H](O)[C@@H](CO)O1 [Compound 4, dodecyl 2-deoxy-α-D-arabino-hexopyranoside] | > 100 µM | > 100 µM | > 33 µg/mL | > 100 µM | > 100 µM | > 100 µM | > 33 µg/mL | Non PE-binder; also recorded: limited affinity towards PE |  |  |  |  |  |  |  | 
2 | CCCCCCCCCCCCO[C@H]1O[C@H](C)C[C@H](O)[C@H]1O [Compound 1, dodecyl 4,6-dideoxy-α/β-D-xylo-hexopyranoside] | 52.5 ± 2.28 µM | 54.2 ± 2.77 µM | 17.2 µg/mL | 65.9 ± 3.75 µM | 65.8 ± 1.28 µM | 67.7 ± 1.22 µM | 20.8 µg/mL |  | 54.7 ± 1.04 µM | 50.5 ± 0.15 µM | 52.2 ± 1.77 µM | 69.4 ± 2.58 µM | 64.6 ± 0.87 µM | 65.32 ± 0.4 µM | 65.8 µM | IC50 (Caco-2 cells; No polymyxin, 72 h): 54.3 µM
3 | CCCCCCCCCCCC[C@H]1O[C@H](C)C[C@H](O)[C@H]1O [Compound 5, 1-(4,6-dideoxy-α-D-xylo-hexopyranosyl)dodecane] | 64.1 ± 1.09 µM | 62.4 ± 1.22 µM | 18.7 µg/mL | 80 ± 1.69 µM | 79.74 ± 0.53 µM | 83.2 ± 0.96 µM | 24 µg/mL |  | 64.9 ± 0.98 µM | 61.1 ± 1.06 µM |  | 78.6 ± 3.28 µM | 79.2 ± 2 µM | 79.4 ± 1.58 µM | 79.7 µM | IC50 (HEK-293T cells; Homo sapiens, HEK-293T, Colistin 0.125 μg/mL): 79.7 ± 1.05 µM
4 | CCCCCCCCCCCCO[C@H]1C[C@H](O)[C@@H](O)[C@H](C)O1 [Compound 3, dodecyl 2,6-dideoxy-α-L-arabino-hexopyranoside] | 68.2 ± 2.12 µM | 68.9 ± 2.21 µM | 21.8 µg/mL | 79.3 ± 2 µM | 72.5 ± 2.51 µM | 75.1 ± 2.7 µM | 22.9 µg/mL | selectively interact with phosphatidylethanolamine (PE); also recorded: Confirmed PE binder | 69.2 ± 1.25 µM |  |  |  |  |  |  | MIC (E. coli K12): 256 µg/mL (≈ 809 µM); MIC (B. cereus ATCC 14579): 16 µg/mL (≈ 50.6 µM); MIC (E. coli K12 spheroplasts): 4 µg/mL (≈ 12.6 µM)
5 | CCCCCCCCCCCCO[C@@H]1O[C@H](C)C[C@H](O)[C@H]1O [Compound 2, dodecyl 4,6-dideoxy-α/β-D-xylo-hexopyranoside] | 53.4 ± 5.35 µM | 54.8 ± 0.61 µM | 17.4 µg/mL | 84.1 ± 2.87 µM | 84.2 ± 2.59 µM | 82 ± 2.9 µM | 26.6 µg/mL |  | 58.09 ± 0.33 µM | 58.8 ± 2.66 µM | 56.4 ± 3.9 µM | 80.7 ± 6.08 µM |  | 84.5 ± 1.52 µM | 84.2 µM | IC50 (Caco-2 cells; Homo sapiens, Caco-2, 72 h, Colistin 0.125 μg/mL): 55.7 ± 0.52 µM
